These results are taken from patent US20030186946A1, “Suppression of cytotoxic protein conformers” (priority 2002, published 2003).

Data set [1] concerns the target T1, human amylin (Homo sapiens, UniProt P10997).
T1 sequence (P10997 34-70 limits assumed): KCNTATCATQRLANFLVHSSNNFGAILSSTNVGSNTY
Kind of data set: Electron microscopy of human amylin fibrils. The format is biochemical. Also noted: Amylin is a 37-residue; C-terminally amidated peptide having a disulfide bridge between the cysteines at residues 2 and 7; purchased Bachem Calif; (Torrance, Calif.); host or cells: chemical synthesis. The settings on record: 1200 μM compound, 60 μM human amylin, 10 mM tris pH 7.4, 24 h (FIG. 6). How it is done: Electron Microscopy. […] Samples were removed at various time points and prepared for electron microscopy. Aliquots (8 μl) of the amylin fibril preparations were absorbed to glow-discharged carbon-coated collodion film on 200-mesh copper grids for 1 min. Grids were blotted, washed twice in droplets of deionised water and stained with 2% (w/v) uranyl acetate. Grids were examined in a Phillips Technai transmission electron microscope operated at 120 kV.
Samples were removed at various time points and prepared for electron microscopy according to the procedure described in the methods.
Electron Microscopy of human amylin fibrils in the presence and absence of quinacrine (FIG. 5). A 100 fold molar excess of quinacrine was incubated with human amylin. Samples were removed at various time points and prepared for electron microscopy according to the procedure described in the methods.
Electron Microscopy of human amylin fibrils in the presence and absence of selected polycyclic compounds (FIG. 6). […] Samples were removed and prepared for electron microscopy as described in the Methods. All experiments were performed in triplicate and the pictures above are representative of at least 6 photographs taken at each magnification.

Data set [2] deals with T1, human amylin. The data set is described as follows: Radiolabelled precipitation assay of amylin fibril formation. The arrangement: Amylin is a 37-residue; C-terminally amidated peptide having a disulfide bridge between the cysteines at residues 2 and 7; purchased Bachem Calif; (Torrance, Calif.); host or cells: chemical synthesis. To be noted: 200 μM Congo red, 10 μM human amylin, after 5 h. The format is biochemical. How it is done: Radiolabelled Precipitation Assays. The precipitation of radiolabelled human and rat amylin fibrils was used as an independent method to monitor assembly of amylin fibrils in the presence or absence of potential inhibitors of amylin fibril formation. […] Incubation mixtures were then centrifuged at either 16,000×g or 100,000×g, for 20 min, and the amount of [^3H]-human amylin remaining in the supernatant after centrifugation was determined (Beckman LSW 3801 β-counter, USA). Results were expressed as percentages of precipitable counts per minute, relative to total radioactivity in the supernatant.
Incorporation of [^3H]-amylin into amylin fibrils was followed for 24 hours. Human amylin fibrils were precipitated by centrifugation at either 16,000×g (FIG. 7A) or at 100,000×g (FIG. 7B). Rat amylin (10 μM) in the presence of [^3H]-rat amylin was used as a non-fibril forming control (♦) (FIG. 7A). The results are shown as the percentage of precipitable radioactive amylin, relative to total radioactivity in the supernatant at each time point. Each data point represents the mean±s.e.m of three separate reactions.
The incorporation of radioactive monomeric amylin into the human amylin fibrils as they form, can be used to measure the rate at which amylin fibrils form in the presence or absence of a potential inhibitory drug. Amylin fibrils can be separated from solution by centrifugation and the amount of radioactive amylin precipitated in the amylin fibril pellet is then used as a measure of the amount of amylin fibrils present at that time.
Thioflavin-T, although not polycyclic, is widely used in fluorescent assays to measure amylin fibril formation. Incorporation of radioactivity into the pellet of an aliquot of the reaction mixture centrifuged at 16,000×g, for 20 minutes was monitored over the time periods indicated. Rat amylin (10 μM) with [^3H]-rat amylin added was used as a non fibril forming control (∘) in each experiment. The results are shown as the percentage of precipitable radioactive amyloid, relative to total radioactivity in the supernatant at each time point. Each data point represents the mean±s.e.m of three separate experiments.

A further data set concerns RINm5F cells. The data set is described as follows: Cytotoxicity assay in RINm5F cells (calcein-AM / ethidium homodimer-1 staining).

Procedure for RINm5F cells: Cell Culture and Cytotoxicity Assays. RINm5F cells were cultured in RPMI 1640 medium containing 10% fetal bovine serum, 290 μg/mL L-glutamine, 100 IU/mL penicillin and 100 μg/mL streptomycin. Cells were plated at a density of 15×1 cells per well, incubated for 48 h, rinsed with PBS and placed in fresh medium containing Congo red. Freshly prepared human amylin in Milli-Q water, was preincubated with Congo red for 30 min, then added to the cell culture medium to give a final concentration of 30 μM. Cells were treated for 22 h with human amylin in the presence or absence of 100 μM Congo red. Cell viability was determined by double-staining with calcein-AM and ethidium homodimer-1. Green fluorescence of live cells and red fluorescence marking nuclei of dead cells were simultaneously visualized using a Zeiss Axiovert S100 microscope equipped with a Zeiss filter set # 09. Photographs were taken at 400× magnification using a Zeiss AxioCam digital camera.
A. Representative fluorescence micrograph of RINm5F cells treated with 30 μM human amylin for 22 h and stained with calcein-AM and ethidium homodimer-1 to show live cells (green) and dead cells (red). […] B. A representative micrograph of RINm5F cells treated with 30 μM human amylin and 100 μM Congo red stained as above. […] The percentage of live cells was determined for cells treated for 22 h with vehicle; 30 μM human amylin; 30 μM human amylin in the presence of 100 μM Congo red; or 30 μM rat amylin. Experiments were repeated independently 10 times except for human amylin plus Congo red (A+CR) which was repeated five times. Error bars represent the s.e.m of live and dead cell counts over 6-12 fields per condition.

As to Congo red, the “morphology of human amylin fibrils (electron microscopy)” value at human amylin [1] was “still formed characteristic amylin fibrils”. The “reduction in amyloid content” value on human amylin [2] is recorded as “approximately 3 fold”. For the same substance, in the data set on RINm5F cells (30 μM human amylin, 100 μM Congo red (3-fold molar excess), 22 h), the “protection against cytotoxic effects of human amylin” value is recorded as “inhibited the cytotoxic effects of amylin”. The “intrinsic cytotoxicity of compound to RINm5F β cells” value in the data set with RINm5F cells (relative molar ratios which produced suppression of amyloid aggregation (low μM)) is “nointrinsic cytotoxic effects”.
